Measurements as given in patent US20230340011A1 (Asteroid Therapeutics, priority 2022, published 2023).

Experiments:
LXRβ = LXRβ (Homo sapiens (Human), UniProt P55055); experiment: In vitro assay LXRβ: PathHunter NHR CHO cells, LXRβ / Steroid Receptor Co-activator Peptide enzyme fragment complementation; assay type: cell-based; settings: PathHunter NHR CHO cells, full-length human LXRβ and SRCP, chemiluminescent signal; read-out: LXRβ PPI
Method in brief: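 Enzyme fragment complementation read-out: CHO cells stably expressing ProLink-tagged full-length human LXRβ plus nuclear enzyme acceptor–SRCP fusion, seeded and held overnight at 37° C. Medium with charcoal-dextran filtered serum; final vehicle 1%. Chemiluminescence measured after signal generation.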

SREBP-2 = SREBP-2 (Homo sapiens (Human), UniProt Q12772); experiment: In vitro assay SREBP-2: PathHunter U2OS SREBP-2 Nuclear Translocation Cell Line, U18666A-stimulated; assay type: cell-based; settings: PathHunter U2OS SREBP-2 nuclear translocation cells, U18666A 10 μM, overnight (16 hours)

Sequence of LXRβ (P55055 whole entry, the tested form may be a part): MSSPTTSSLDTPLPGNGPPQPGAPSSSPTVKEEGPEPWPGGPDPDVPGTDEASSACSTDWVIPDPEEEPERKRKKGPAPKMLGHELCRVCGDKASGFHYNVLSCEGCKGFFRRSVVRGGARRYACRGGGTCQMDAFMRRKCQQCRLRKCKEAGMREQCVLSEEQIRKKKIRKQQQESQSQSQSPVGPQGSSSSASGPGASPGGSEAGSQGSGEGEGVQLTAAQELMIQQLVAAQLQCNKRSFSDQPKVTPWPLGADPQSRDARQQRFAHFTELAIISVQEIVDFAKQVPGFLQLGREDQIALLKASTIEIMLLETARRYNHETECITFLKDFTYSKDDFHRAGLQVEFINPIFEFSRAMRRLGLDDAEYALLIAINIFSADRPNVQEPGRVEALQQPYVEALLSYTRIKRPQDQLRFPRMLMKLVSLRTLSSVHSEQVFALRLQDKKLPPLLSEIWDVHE

Row | SMILES | EC50 (LXRβ) [nM] | IC50 (SREBP-2) [nM]
1 | C[C@H](CCC(=O)N1CCN(C(=O)c2ncnn2C)CC1)[C@H]1CC[C@H]2[C@@H]3CC=C4C[C@@H](O)CC[C@]4(C)[C@H]3CC[C@]12C [Example 382, (R)-4-((3S,8S,9S,10R,13R,14S,17R)-3-hydroxy-10,13-dimethyl-2,3,4,7,8,9,10,11,12,13,14,15,16,17-tetradecahydro-1H-cyclopenta[a]phenanthren-17-yl)-1-(4-(1-methyl-1H-1,2,4-triazole-5-carbonyl)piperazin-1-yl)pentan-1-one] | > 10000 | < 250
2 | CCOc1cccnc1CC[C@@H](C)[C@H]1CC[C@H]2[C@@H]3CC=C4C[C@@H](O)CC[C@]4(C)[C@H]3CC[C@]12C [Example 247, (1R,3aS,3bS,7S,9aR,9bS,11aR)-1-[(2R)-4-(3-ethoxypyridin-2-yl)butan-2-yl]-9a,11a-dimethyl-1H,2H,3H,3aH,3bH,4H,6H,7H,8H,9H,9aH,9bH,10H,11H,11aH-cyclopenta[a]phenanthren-7-ol] | 250 to 1000 | < 250
3 | C[C@H](CCC(=O)N1CCN(C(=O)c2cnn(C)c2)C[C@@H]1C)[C@H]1CC[C@H]2[C@@H]3CC=C4C[C@@H](O)CC[C@]4(C)[C@H]3CC[C@]12C [Example 578, (R)-4-((3S,8S,9S,10R,13R,14S,17R)-3-hydroxy-10,13-dimethyl-2,3,4,7,8,9,10,11,12,13,14,15,16,17-tetradecahydro-1H-cyclopenta[a]phenanthren-17-yl)-1-((S)-2-methyl-4-(1-methyl-1H-pyrazole-4-carbonyl)piperazin-1-yl)pentan-1-one] | > 10000 | < 250
4 | C#CC1(OC(C)C)CCN(C(=O)CC[C@@H](C)[C@H]2CC[C@H]3[C@@H]4CC=C5C[C@@H](O)CC[C@]5(C)[C@H]4CC[C@]23C)CC1 [Example 329, [(1R,3aS,3bS,7S,9aR,9bS,11aR)-7-hydroxy-9a,11a-dimethyl-1H,2H,3H,3aH,3bH,4H,6H,7H,8H,9H,9aH,9bH,10H,11H,11aH-cyclopenta[a]phenanthren-1-yl]-1-[4-ethynyl-4-(propan-2-yloxy)piperidin-1-yl]pentan-1-one] | 1000 to 10000 | < 250
5 | C[C@H](CCc1cncnc1)[C@H]1CC[C@H]2[C@@H]3CC=C4C[C@@H](O)CC[C@]4(C)[C@H]3CC[C@]12C [Example 171, (3S,8S,9S,10R,13R,14S,17R)-10,13-dimethyl-17-((R)-4-(pyrimidin-5-yl)butan-2-yl)-2,3,4,7,8,9,10,11,12,13,14,15,16,17-tetradecahydro-1H-cyclopenta[a]phenanthren-3-ol] | > 10000 | < 250
6 | CCn1c(CC[C@@H](C)[C@H]2CC[C@H]3[C@@H]4CC=C5C[C@@H](O)CC[C@]5(C)[C@H]4CC[C@]23C)n[nH]c1=S [Example 353, 4-ethyl-5-((R)-3-((3S,8S,9S,10R,13R,14S,17R)-3-hydroxy-10,13-dimethyl-2,3,4,7,8,9,10,11,12,13,14,15,16,17-tetradecahydro-1H-cyclopenta[a]phenanthren-17-yl)butyl)-2,4-dihydro-3H-1,2,4-triazole-3-thione] | > 10000 | < 250
7 | C[C@H](CCc1ncccc1CO)[C@H]1CC[C@H]2[C@@H]3CC=C4C[C@@H](O)CC[C@]4(C)[C@H]3CC[C@]12C [Example 454, (3S,8S,9S,10R,13R,14S,17R)-17-((R)-4-(3-(hydroxymethyl)pyridin-2-yl)butan-2-yl)-10,13-dimethyl-2,3,4,7,8,9,10,11,12,13,14,15,16,17-tetradecahydro-1H-cyclopenta[a]phenanthren-3-ol] | < 250 | < 250
8 | CCN(CC)C(=O)N1CCN(C(=O)CC[C@@H](C)[C@H]2CC[C@H]3[C@@H]4CC=C5C[C@@H](O)CC[C@]5(C)[C@H]4CC[C@]23C)CC1 [Example 212, N,N-diethyl-4-((R)-4-((3S,8S,9S,10R,13R,14S,17R)-3-hydroxy-10,13-dimethyl-2,3,4,7,8,9,10,11,12,13,14,15,16,17-tetradecahydro-1H-cyclopenta[a]phenanthren-17-yl)pentanoyl)piperazine-1-carboxamide] | > 10000 | < 250
9 | C[C@H](COc1cccnc1)[C@H]1CC[C@H]2[C@@H]3CC=C4C[C@@H](O)CC[C@]4(C)[C@H]3CC[C@]12C [Example 180, (3S,8S,9S,10R,13S,14S,17R)-10,13-dimethyl-17-((S)-1-(pyridin-3-yloxy)propan-2-yl)-2,3,4,7,8,9,10,11,12,13,14,15,16,17-tetradecahydro-1H-cyclopenta[a]phenanthren-3-ol] | > 10000 | < 250
10 | COc1ccccc1C1CCN(C(=O)CC[C@@H](C)[C@H]2CC[C@H]3[C@@H]4CC=C5C[C@@H](O)CC[C@]5(C)[C@H]4CC[C@]23C)CC1 [Example 623, (R)-4-((3S,8S,9S,10R,13R,14S,17R)-3-hydroxy-10,13-dimethyl-2,3,4,7,8,9,10,11,12,13,14,15,16,17-tetradecahydro-1H-cyclopenta[a]phenanthren-17-yl)-1-(4-(2-methoxyphenyl)piperidin-1-yl)pentan-1-one] | 1000 to 10000 | < 250
11 | CC(O)c1cccnc1CC[C@@H](C)[C@H]1CC[C@H]2[C@@H]3CC=C4C[C@@H](O)CC[C@]4(C)[C@H]3CC[C@]12C (stereo partly drawn) [Example 455, (3S,8S,9S,10R,13R,14S,17R)-17-((2R)-4-(3-(1-hydroxyethyl)pyridin-2-yl)butan-2-yl)-10,13-dimethyl-2,3,4,7,8,9,10,11,12,13,14,15,16,17-tetradecahydro-1H-cyclopenta[a]phenanthren-3-ol] | < 250 | < 250
12 | C[C@H](COc1ccncc1)[C@H]1CC[C@H]2[C@@H]3CC=C4C[C@@H](O)CC[C@]4(C)[C@H]3CC[C@]12C [Example 181, (8S,9S,10R,13S,14S,17R)-10,13-dimethyl-17-((S)-1-(pyridin-4-yloxy)propan-2-yl)-2,3,4,7,8,9,10,11,12,13,14,15,16,17-tetradecahydro-1H-cyclopenta[a]phenanthren-3-ol] | > 10000 | 250 to 1000
13 | CC1CCN(C(=O)CC[C@@H](C)[C@H]2CC[C@H]3[C@@H]4C[C@@H](O)[C@H]5C[C@@H](O)CC[C@]5(C)[C@H]4CC[C@]23C)CC1 [Example C2, (R)-4-((3S,5S,6R,8S,9S,10R,13R,14S,17R)-3,6-dihydroxy-10,13-dimethylhexadecahydro-1H-cyclopenta[a]phenanthren-17-yl)-1-(4-methylpiperidin-1-yl)pentan-1-one] | > 10000 | > 10000
14 | C[C@H](CCC(=O)N1CCN(c2ncccc2OC2CC2)CC1)[C@H]1CC[C@H]2[C@@H]3CC=C4C[C@@H](O)CC[C@]4(C)[C@H]3CC[C@]12C [Example 621, (R)-1-(4-(3-cyclopropoxypyridin-2-yl)piperazin-1-yl)-4-((3S,8S,9S,10R,13R,14S,17R)-3-hydroxy-10,13-dimethyl-2,3,4,7,8,9,10,11,12,13,14,15,16,17-tetradecahydro-1H-cyclopenta[a]phenanthren-17-yl)pentan-1-one] | > 10000 | < 250
15 | COc1ccncc1N1CCN(C(=O)CC[C@@H](C)[C@H]2CC[C@H]3[C@@H]4CC=C5C[C@@H](O)CC[C@]5(C)[C@H]4CC[C@]23C)CC1 [Example 611, (R)-4-((3S,8S,9S,10R,13R,14S,17R)-3-hydroxy-10,13-dimethyl-2,3,4,7,8,9,10,11,12,13,14,15,16,17-tetradecahydro-1H-cyclopenta[a]phenanthren-17-yl)-1-(4-(4-methoxypyridin-3-yl)piperazin-1-yl)pentan-1-one] | > 10000 | < 250
16 | COC(=O)N1CCC(C(=O)NC[C@@H](C)[C@H]2CC[C@H]3[C@@H]4CC=C5C[C@@H](O)CC[C@]5(C)[C@H]4CC[C@]23C)CC1 [Example 591, Methyl 4-{[(2S)-2-[(1R,3aS,3bS,7S,9aR,9bS,11aS)-7-hydroxy-9a,11a-dimethyl-1H,2H,3H,3aH,3bH,4H,6H,7H,8H,9H,9aH,9bH,10H,11H,11aH-cyclopenta[a]phenanthren-1-yl]propyl]carbamoyl}piperidine-1-carboxylate] | > 10000 | < 250
17 | Cc1ncncc1CC[C@@H](C)[C@H]1CC[C@H]2[C@@H]3CC=C4C[C@@H](O)CC[C@]4(C)[C@H]3CC[C@]12C [Example 188, (3S,8S,9S,10R,13R,14S,17R)-10,13-dimethyl-17-((R)-4-(4-methylpyrimidin-5-yl)butan-2-yl)-2,3,4,7,8,9,10,11,12,13,14,15,16,17-tetradecahydro-1H-cyclopenta[a]phenanthren-3-ol] | 1000 to 10000 | < 250
18 | C[C@H](CCC(=O)N1CCN(C(=O)c2nnnn2C)CC1)[C@H]1CC[C@H]2[C@@H]3CC=C4C[C@@H](O)CC[C@]4(C)[C@H]3CC[C@]12C [Example 363, (R)-4-((3S,8S,9S,10R,13R,14S,17R)-3-hydroxy-10,13-dimethyl-2,3,4,7,8,9,10,11,12,13,14,15,16,17-tetradecahydro-1H-cyclopenta[a]phenanthren-17-yl)-1-(4-(1-methyl-1H-tetrazole-5-carbonyl)piperazin-1-yl)pentan-1-one] | > 10000 | < 250
19 | CC(=O)N(C)[C@H]1CCN(C(=O)CC[C@@H](C)[C@H]2CC[C@H]3[C@@H]4CC=C5C[C@@H](O)CC[C@]5(C)[C@H]4CC[C@]23C)C1 [Example 321, N—((S)-1-((R)-4-((3S,8S,9S,10R,13R,14S,17R)-3-hydroxy-10,13-dimethyl-2,3,4,7,8,9,10,11,12,13,14,15,16,17-tetradecahydro-1H-cyclopenta[a]phenanthren-17-yl)pentanoyl)pyrrolidin-3-yl)-N-methylacetamide] | > 10000 | < 250
